This is an account of results in ChEMBL document CHEMBL4627350, “Drug repurposing and rediscovery: Design, synthesis and preliminary biological evaluation of 1-arylamino-3-aryloxypropan-2-ols as anti-melanoma agents” (Bioorg Med Chem, 2020).

The structures appear in SMILES notation. Active and inactive are the calls of the source. The rule behind the calls is not given here.

In test [1] the test system is A-375. Nature of the test: Antiproliferative activity against human A375 cells assessed as cell growth inhibition incubated for 48 hrs by MTT assay. It counts as functional, cell-based. To be noted: A-375, 48 h. Background: Tetrazolium assays rely on reduction of a dye to a coloured formazan, in cell work by metabolically active cells.
For test [2], the system named is SK-MEL-5. Nature of the test: Antiproliferative activity against human SK-MEL-5 cells assessed as cell growth inhibition incubated for 48 hrs by MTT assay. It is filed as functional, cell-based. The conditions noted are these: SK-MEL-5, 48 h.
For test [3], the system named is SK-MEL-28. Nature of the test: Antiproliferative activity against human SK-MEL-28 cells assessed as cell growth inhibition incubated for 48 hrs by MTT assay. The conditions noted are these: SK-MEL-28, 48 h. It is filed as functional, cell-based.
The test system of test [4] is SK-MEL-28. Kind of test: Inhibition of colony formation in human SK-MEL-28 cells at 5 to 100 uM supplemented with fresh medium containing compound every 72 hrs for 2 weeks by crystal violet staining based assay. It counts as functional, cell-based.
Test [5] relates to SK-MEL-28. Nature of the test: Cell cycle arrest in human SK-MEL-28 cells assessed as accumulation at G2/M phase at 5 nM after 24 hrs by […] dye staining based fluorescence assay. It counts as functional.
The test system of test [6] is A-375. Nature of the test: Potency index, ratio of carvedilol IC50 to test compound IC50 for antiproliferative activity against human A375 cells. It is filed as functional.
For test [7], the system named is SK-MEL-5. Nature of the test: Potency index, ratio of carvedilol IC50 to test compound IC50 for antiproliferative activity against human SK-MEL-5 cells. It counts as functional.
In test [8] the test system is SK-MEL-28. Nature of the test: Potency index, ratio of carvedilol IC50 to test compound IC50 for antiproliferative activity against human SK-MEL-28 cells. It is filed as functional.
Test [9] concerns SK-MEL-28. Nature of the test: Antimigratory activity against human SK-MEL-28 cells assessed as reduction in cell migration at 1 uM measured after 48 hrs by wound healing assay. It counts as functional, cell-based.
Test [10] deals with SK-MEL-28. Kind of test: Cell cycle arrest in human SK-MEL-28 cells assessed as accumulation at G2/M phase after 24 hrs by […] dye staining based fluorescence assay. It counts as functional.
Test [11] concerns SK-MEL-28. Kind of test: Inhibition of colony formation in human SK-MEL-28 cells at 2 uM supplemented with fresh medium containing compound every 72 hrs for 2 weeks by crystal violet staining based assay. It counts as functional.
For test [12], the system named is SK-MEL-28. Kind of test: Induction of apoptosis in human SK-MEL-28 cells incubated for 24 hrs by Annexin V-FITC/propidium iodide staining based flow cytometric analysis. It counts as functional, cell-based. (In general: Flow cytometry measures light scatter and fluorescence of single cells or particles in a stream.)
The target of the next test is Tubulin (Homo sapiens) (UniProt P68371+Q9H4B7+P0DPH7+P68366+Q13509+Q71U36+P04350+Q3ZCM7+P07437+P68363+Q9BQE3+Q6PEY2+Q13885+Q9BVA1+Q9BUF5). Kind of test: Inhibition of tubulin in human SK-MEL-28 cells assessed as disruption of microtubule network at 1 to 2 uM by Alexa Fluor 488 and DAPI staining based fluorescence microscopic method. It is filed as cell-based.
Test [13] deals with A-375. Nature of the test: Antiproliferative activity against human A375 cells assessed as cell growth inhibition at 100 uM measured after 48 hrs by MTT assay relative to control. To be noted: A-375, 48 h. It is filed as functional.
In test [14] the test system is SK-MEL-28. Kind of test: Antiproliferative activity against human SK-MEL-28 cells assessed as cell growth inhibition at 100 uM measured after 48 hrs by MTT assay relative to control. It is filed as functional. To be noted: SK-MEL-28, 48 h.
Test [15] deals with SK-MEL-5. Nature of the test: Antiproliferative activity against human SK-MEL-5 cells assessed as cell growth inhibition at 100 uM incubated for 48 hrs by MTT assay relative to control. It is filed as functional. The conditions noted are these: SK-MEL-5, 48 h.

As for `COc1ccccc1OCCNC[C@H](O)COc1cccc2[nH]c3ccccc3c12`, the concentration for half-maximal inhibition (IC50) (as a rule, the concentration needed to halve the response being measured) in the test with A-375 [1] worked out at 14.7 µM; in the test with SK-MEL-5 [2] it was 7.04 µM; in the test with SK-MEL-28 [3], 10.5 µM.
For `COc1ccccc1OCCNCCCOc1cccc2[nH]c3ccccc3c12` the same measures were 6.88 µM, 6.18 µM and 6.66 µM.
For `c1ccc(Nc2cccc(OCCCNCc3ccc(-c4ccccc4)cc3)c2)cc1` the same measures were 2.31 µM, 4.72 µM and 3.8 µM.
For `c1ccc(N2CCN(CCCOc3cccc4[nH]c5ccccc5c34)CC2)cc1` the same measures were 22.6 µM, 36.9 µM and 19.2 µM.
As to `Cc1ccc2cccc(NCCCOc3cccc4[nH]c5ccccc5c34)c2n1`, the figures for the 50% inhibitory concentration (IC50) with A-375 [1], with SK-MEL-5 [2] and in the test on SK-MEL-28 [3] were 22.3 µM, 16.4 µM and 19.8 µM, respectively.
In the case of `COc1ccccc1N1CCN(CCCOc2cccc3[nH]c4ccccc4c23)CC1`, the IC50 stood at 10.8 µM with A-375 [1], 13.7 µM in the test with SK-MEL-5 [2] and 11.4 µM in the test on SK-MEL-28 [3].
Consider `O[C@@H](CNCc1ccc(-c2ccccc2)cc1)COc1cccc2[nH]c3ccccc3c12`, for which the IC50 in the test with A-375 [1] came out at 5.22 µM; with SK-MEL-5 [2], 2.69 µM; in the test on SK-MEL-28 [3], 4.99 µM.
On the same counts, the results for `c1ccc(N2CCN(CCCOc3cccc4[nH]c5ccccc5c34)CC2)nc1` are 13.9 µM, 11.5 µM and 15.5 µM.
For `c1ccc(-c2ccc(CNCCCOc3cccc4[nH]c5ccccc5c34)cc2)cc1` the same measures were 6.59 µM, 4.28 µM and 4.39 µM.
Regarding `CC(C)NCC(O)COc1cccc2ccccc12` (stereo unspecified), the inhibition – broadly, how much of the control response was suppressed – in the test with SK-MEL-28 [4] is “Active”.
With `COc1cc2c(c(OC)c1OC)-c1ccc(OC)c(=O)cc1[C@@H](NC(C)=O)CC2`, the outcome with SK-MEL-28 [5] was Active.
For the compound `COc1ccccc1OCCNCC(O)COc1cccc2ccccc12` (racemic), the IC50 was 18.9 µM with A-375 [1], 10.1 µM in the test on SK-MEL-5 [2] and 13.5 µM in the test on SK-MEL-28 [3].
For `COc1ccccc1N1CCN(CC(O)COc2cccc3[nH]c4ccccc4c23)CC1` (racemic) the same measures were 13.9 µM, 13.6 µM and 14.1 µM.
For `OC(COc1cccc2[nH]c3ccccc3c12)CN1CCN(c2ccccc2)CC1` (racemic) the same measures were 16.3 µM, 17 µM and 18.5 µM.
For `CC(C)NCC(O)COc1ccc(-c2ccccc2)cc1` (racemic) the same measures were 11 µM, 12 µM and 11.9 µM.
For `OC(CNc1ccc(-c2ccccc2)cc1)COc1cccc2[nH]c3ccccc3c12` (racemic), the figures for the 50% inhibitory concentration (IC50) in the test on A-375 [1], with SK-MEL-5 [2] and in the test with SK-MEL-28 [3] were 13.5 µM, 13.9 µM and 12.5 µM, respectively.
For `COc1ccccc1OCCNCC(O)COc1ccc2ccccc2c1` (racemic) the same measures were 21.1 µM, 18.5 µM and 19.7 µM.
As to `OC(COc1cccc2[nH]c3ccccc3c12)CN1CCN(c2ccccn2)CC1` (racemic), the IC50 in the test with A-375 [1] worked out at 31.8 µM; with SK-MEL-5 [2], 26.1 µM; with SK-MEL-28 [3], 24.7 µM.
For the compound `OC(CNCc1ccc(-c2ccccc2)cc1)COc1cccc2[nH]c3ccccc3c12` (racemic), the half-inhibitory concentration (IC50) in the test with A-375 [1] came to 5.56 µM; in the test with SK-MEL-5 [2] it was 3.14 µM; in the test with SK-MEL-28 [3], 3.8 µM. The “Ratio IC50” value in the test with A-375 [6], with SK-MEL-5 [7] and in the test on SK-MEL-28 [8] was 15 throughout. In addition, the outcome in the test on SK-MEL-28 [9] was Active.
Take `OC(COc1ccc(-c2ccccc2)cc1)CN1CCN(c2ccccn2)CC1` (racemic): the IC50 with A-375 [1] was 28.2 µM; in the test on SK-MEL-5 [2], 21.2 µM; in the test on SK-MEL-28 [3] it was 25 µM.
In the case of `OC(COc1ccc(-c2ccccc2)cc1)CN1CCN(c2ccccc2)CC1` (racemic), the IC50 in the test with A-375 [1] amounted to 14.3 µM; in the test on SK-MEL-5 [2] it was 12.2 µM; in the test with SK-MEL-28 [3], 15.3 µM.
For `COc1ccccc1OCCNCC(O)COc1ccc(-c2ccccc2)cc1` (racemic) the same measures were 8.37 µM, 5.86 µM and 6.01 µM.
In the case of `OC(CNCc1ccc(-c2ccccc2)cc1)COc1cccc(Nc2ccccc2)c1` (racemic), the IC50 came out at 1.98 µM in the test on A-375 [1], 3.7 µM in the test on SK-MEL-5 [2] and 3.3 µM in the test with SK-MEL-28 [3]. Further, the Activity entry in the test on SK-MEL-28 [10] and with SK-MEL-28 [12] was “Dose-dependent effect” each time. In addition, the “inhibition (INH)” value with SK-MEL-28 [11] was found to be 100%. For the same compound, in the test with SK-MEL-28 [9], the outcome was Active. On Tubulin (Homo sapiens), the inhibition result is “Active”.
For `Cc1ccc2cccc(NCC(O)COc3cccc4[nH]c5ccccc5c34)c2n1` (racemic), the IC50 in the test on A-375 [1] came out at 14.1 µM; with SK-MEL-5 [2], 14.5 µM; with SK-MEL-28 [3] it was 14.2 µM.
Take `CC(C)NCC(O)COc1ccc(CC(N)=O)cc1` (stereo unspecified) [ATENOLOL]: the IC50 with A-375 [1], with SK-MEL-5 [2] and with SK-MEL-28 [3] was over 100 µM in each case. For the same compound, the values for the inhibition at 100 µM with A-375 [13], in the test with SK-MEL-28 [14] and with SK-MEL-5 [15] were 8.6%, 6.9% and 5.2%, respectively.
Take `CC(C)NCC(O)COc1ccc(COCCOC(C)C)cc1` (stereo unspecified) [BISOPROLOL]: the concentration for half-maximal inhibition (IC50) in the test with A-375 [1], in the test on SK-MEL-5 [2] and with SK-MEL-28 [3] was over 100 µM throughout. In addition, the results for the inhibition at 100 µM in the test with A-375 [13], in the test with SK-MEL-28 [14] and with SK-MEL-5 [15] were 28.3%, 6.4% and 14.8%, respectively.
`CC(C)NCC(O)COc1cccc2[nH]c3ccccc3c12` (stereo unspecified) [CARAZOLOL]: the concentration for half-maximal inhibition (IC50) was 35.4 µM in the test with A-375 [1], 33.7 µM in the test with SK-MEL-5 [2] and 31.3 µM with SK-MEL-28 [3].
For the compound `COc1ccccc1OCCNCC(O)COc1cccc2[nH]c3ccccc3c12` (stereo unspecified) [CARVEDILOL], the IC50 amounted to 13 µM with A-375 [1], 13.7 µM in the test with SK-MEL-5 [2] and 15.6 µM in the test with SK-MEL-28 [3]. Moreover, the inhibition entry in the test with SK-MEL-28 [4] is “Active”.
For the compound `COC(=O)CCc1ccc(OCC(O)CNC(C)C)cc1` (stereo unspecified) [ESMOLOL], the 50% inhibitory concentration (IC50) in the test with A-375 [1], with SK-MEL-5 [2] and with SK-MEL-28 [3] was over 100 µM each time. In addition, the inhibition at 100 µM stood at 22.8% in the test on A-375 [13], 25.8% in the test on SK-MEL-28 [14] and 31.4% in the test on SK-MEL-5 [15].
On to `CC(CCc1ccccc1)NCC(O)c1ccc(O)c(C(N)=O)c1` (stereo unspecified) [LABETALOL], for which the IC50 in the test with A-375 [1], in the test on SK-MEL-5 [2] and with SK-MEL-28 [3] was over 100 µM throughout. Besides, the inhibition at 100 µM in the test on A-375 [13] was found to be 38.1%; in the test with SK-MEL-28 [14], 35.6%; in the test with SK-MEL-5 [15], 36.2%.
For the compound `COCCc1ccc(OCC(O)CNC(C)C)cc1` (stereo unspecified) [METOPROLOL], the concentration for half-maximal inhibition (IC50) in the test on A-375 [1], in the test on SK-MEL-5 [2] and in the test on SK-MEL-28 [3] was over 100 µM in each case. The figures for the inhibition at 100 µM in the test with A-375 [13], in the test on SK-MEL-28 [14] and in the test on SK-MEL-5 [15] were 26.3%, 30% and 38.8%, respectively.
Regarding `CC(C)NCC(O)c1ccc(NS(C)(=O)=O)cc1` (stereo unspecified) [SOTALOL], the IC50 in the test with A-375 [1], in the test on SK-MEL-5 [2] and in the test with SK-MEL-28 [3] was over 100 µM throughout. For the same compound, the inhibition at 100 µM with A-375 [13] was 15.2%; with SK-MEL-28 [14], 7.4%; in the test with SK-MEL-5 [15], 2.1%.
In the case of `CC(C)(C)NC[C@H](O)COc1nsnc1N1CCOCC1` [TIMOLOL], the IC50 with A-375 [1], with SK-MEL-5 [2] and in the test on SK-MEL-28 [3] was over 100 µM throughout. The figures for the inhibition at 100 µM in the test with A-375 [13], with SK-MEL-28 [14] and in the test on SK-MEL-5 [15] were 22.7%, 18.6% and 33.3%, respectively.
